Patent US11207291B2, “Antimicrobial compositions comprising cannabinoids and methods of using the same” (Graphium Biosciences, Inc., priority 2017, dated 2021)
Values after ≈ are worked out from the molar mass of the structure shown.

How the values were obtained:
Lactobacillus crispatus = test: Broth microdilution MIC, anaerobic bacteria (Example 1); assay type: cell-based; details: Lactobacillus crispatus
B. fragilis ATCC 25285 = test: MIC/MBC testing (Example 5); assay type: cell-based; details: Bacteroides fragilis, ATCC25285
[1] = test system: Enterococcus faecalis (VSE); test: Broth microdilution MIC, aerobic bacteria (Example 1); assay type: cell-based; details: Enterococcus faecalis, ATCC29212, isolate MMX 101 (ATCC 29212), read-out: MIC
[2] = test system: Enterococcus faecalis (VRE); test: microbe, parasite or virus in culture; assay type: cell-based
E. coli ATCC 25922 = test: MIC/MBC testing (Example 5); assay type: cell-based; details: Escherichia coli, ATCC25922
[3] = Analysis of intestinal contents, plasma and brains after oral CBD or CBD-glycosides (Example 3); assay type: in vivo; details: mouse, oral gavage; 2 hours; data not shown
Description: In order to investigate the metabolism and decoupling of CBD-glycosides in the large intestine, an aqueous solution of a mixture of CBD-glycosides was administered to a mouse by oral gavage. As a control, a solution of CBD in cremophor, ethanol, and saline was administered to a second mouse. The animals were each sacrificed at 2 hours. Following termination and tissue harvest, the intestinal contents were then extracted and analyzed by C18 reverse phase HPLC. The mice employed in this example were eight week old male Swiss mice fasted for 12 hours prior to administration of the solutions.
The resulting extracts were analyzed by LCMS performed using a Shimadzu LC-MS 2010 EV. Electrospray ionization (ESI) was performed in negative mode. The column was a Silia Chrom XDB C18 5 um, 150 A, 4.6×50 mm. The method was 12 min 5 to 95 H2O:ACN. Acetic acid and formic acid were used as sample additives during analysis, and the injection volume was 20 μl.

[4] = test system: Klebsiella pneumoniae (KPC-2); assay type: cell-based; details: Example 1 summary of findings; Klebsiella
Candida parapsilosis [5] = test: Broth microdilution MIC, yeast and fungi (Example 1); assay type: cell-based; details: Lodderomyces parapsilosis, ATCC22019, Example 1, isolate MMX 2323 (ATCC 22019)
[6] = test system: evaluated yeast and fungal isolates; test: Broth microdilution MIC, summary (Example 4); assay type: cell-based
S. pyogenes MMX 404 = test: MIC/MBC testing (Example 5); assay type: cell-based
Streptococcus pyogenes = test: Broth microdilution MIC, aerobic bacteria (Example 4); assay type: cell-based
Candida parapsilosis [7] = test: Broth microdilution MIC, fungi (Example 4); assay type: cell-based; details: Lodderomyces parapsilosis
B. longum MMX 3968 = test: MIC/MBC testing (Example 5); assay type: cell-based
Bifidobacterium longum = test: Broth microdilution MIC, anaerobic bacteria (Example 1); assay type: cell-based; details: Bifidobacterium longum
Bifidobacterium bifidum [8] = test: as above; assay type: cell-based; details: Bifidobacterium bifidum
[9] = test system: Staphylococcus aureus (MSSA); test: Broth microdilution MIC, aerobic bacteria (Example 1); assay type: cell-based; details: Staphylococcus aureus, ATCC 29213 / MSSA, isolate MMX 100 (ATCC 29213), read-out: MIC
Escherichia coli = test: as above; assay type: cell-based; details: Escherichia coli, ATCC25922, isolate MMX 102 (ATCC 25922), read-out: MIC
[10] = Compound precipitation in uninoculated solubility controls (Example 1); assay type: physicochemical; design: key to precipitation observed (type): NA: not applicable (no precipitation observed); TRP: trace precipitate; DCP: distinct precipitate
Description: Plates were stacked 3-4 high, covered with a lid on the top plate, placed in plastic bags, and incubated at 35° C. for approximately 16 to 20 hr (aerobes), 20 to 24 hr (Streptococcus), and 24 and 48 hr (fungi). Anaerobe plates were stacked, covered with a lid on the top plate, placed in a BD GasPak EZ Anaerobe Container System and incubated at 35° C. for 48 hr. Following incubation, the microplates were removed from the incubator and viewed from the bottom using a plate viewer. […] The MIC was read and recorded as the lowest concentration of drug that inhibited visible growth of the organism.

Anaerobic Bacteria = test: Broth microdilution MIC, text summary (Example 1); assay type: cell-based
Bifidobacterium bifidum [11] = test: Broth microdilution MIC, anaerobic bacteria (Example 4); assay type: cell-based; details: isolate MMX 3965
C. difficile = test: MIC/MBC testing (Example 5); assay type: cell-based; details: for MBC:MIC: ratios of 1-4 are indicative of bactericidal activity; for MBC / MIC: Clostridioides difficile
B. bifidum MMX 3965 = test: MIC/MBC testing (Example 5); assay type: cell-based
Pseudomonas aeruginosa = test: Broth microdilution MIC, aerobic bacteria (Example 4); assay type: cell-based
[12] = test system: Staphylococcus aureus (MRSA); test: microbe, parasite or virus in culture; assay type: cell-based; details: Staphylococcus aureus, MRSA
gram-positive aerobes = test: Broth microdilution MIC, text summary (Example 1); assay type: cell-based
Acinetobacter baumannii = test: Broth microdilution MIC, aerobic bacteria (Example 4); assay type: cell-based
gram-negative aerobes = test: Broth microdilution MIC, summary (Example 4); assay type: cell-based; details: tested alone
[13] = Example 1 summary of findings, read-out: inhibits the growth (IC50 values)
[14] = ratios of 1-4 are indicative of bactericidal activity
[15] = Bifidobacterium longum, MMX3968
[16] = ATCC700057, Example 5, ATCC 700057
[17] = Bifidobacterium bifidum, MMX3965

Question: For `C=C(C)[C@@H]1CCC(C)=C[C@H]1c1c(O)cc(CCCCC)cc1O` [CBD, cannabidiol], which MIC (Lactobacillus crispatus; Example 1, isolate MMX 4147, read-out: MIC) is on record?
Answer: 2 µg/mL (≈ 6.36 µM)

Question: And the IC50 (Lactobacillus crispatus; [13])?
Answer: 2 µg/mL (≈ 6.36 µM)

Question: And the MIC (B. fragilis ATCC 25285)?
Answer: 16 µg/mL (≈ 50.9 µM)

Question: And the MIC [1]?
Answer: 2 µg/mL (≈ 6.36 µM)

Question: And the MIC [2]?
Answer: 2 µg/mL (≈ 6.36 µM)

Question: What about the MIC (E. coli ATCC 25922) of the same molecule?
Answer: > 256 µg/mL

Question: And the “presence of CBD in plasma and brains (HPLC)” value [3]?
Answer: CBD was only present in the control animal that received CBD aglycone

Question: What about the “effect on the gram-negative pathogen” value [4] of the same molecule?
Answer: did not have any effect

Question: What about the MIC (Candida parapsilosis [5]; 24 hr, read-out: MIC at 24 hr) of the same molecule?
Answer: > 256 µg/mL

Question: And the MIC (Candida parapsilosis [5]; 48 hr, read-out: MIC at 48 hr)?
Answer: > 256 µg/mL

Question: What about the “activity against yeast and fungal isolates” value [6] of the same molecule?
Answer: Neither THC nor CBD were active

Question: And the MBC (S. pyogenes MMX 404; Streptococcus pyogenes, MMX404)?
Answer: 32 µg/mL (≈ 102 µM)

Question: And the MIC (S. pyogenes MMX 404; Streptococcus pyogenes, MMX404)?
Answer: 32 µg/mL (≈ 102 µM)

Question: And the “MBC:MIC” value (S. pyogenes MMX 404; [14])?
Answer: 1

Question: What about the MIC (Streptococcus pyogenes) of the same molecule?
Answer: 32 µg/mL (≈ 102 µM)

Question: And the MIC (Candida parapsilosis [7]; ATCC22019, 24 h, read-out: MIC at 24 hr)?
Answer: > 128 µg/mL

Question: What about the MIC (Candida parapsilosis [7]; ATCC22019, Example 4, 48 hr, isolate MMX 2323 (ATCC 22019), read-out: MIC at 48 hr) of the same molecule?
Answer: > 128 µg/mL

Question: And the MBC (B. longum MMX 3968; [15])?
Answer: 64 µg/mL (≈ 204 µM)

Question: And the MIC (B. longum MMX 3968; [15])?
Answer: 16 µg/mL (≈ 50.9 µM)

Question: What about the “MBC:MIC” value (B. longum MMX 3968; [14]) of the same molecule?
Answer: 4

Question: And the MIC (Bifidobacterium longum; Example 1, isolate MMX 3968, read-out: MIC)?
Answer: 32 µg/mL (≈ 102 µM)

Question: And the IC50 (Bifidobacterium longum; [13])?
Answer: 32 µg/mL (≈ 102 µM)

Question: And the MIC (Bifidobacterium bifidum [8]; Example 1, isolate MMX 3965, read-out: MIC)?
Answer: 2 µg/mL (≈ 6.36 µM)

Question: And the IC50 (Bifidobacterium bifidum [8]; [13])?
Answer: 2 µg/mL (≈ 6.36 µM)

Question: And the MIC [9]?
Answer: 2 µg/mL (≈ 6.36 µM)

Question: What about the MIC (Escherichia coli) of the same molecule?
Answer: > 256 µg/mL

Question: What about the “lowest concentration at which precipitation was observed” value ([10]; MHB II) of the same molecule?
Answer: 16 µg/mL

Question: And the “precipitation observed (type)” value ([10]; MHB II)?
Answer: TRP

Question: And the “lowest concentration at which precipitation was observed” value ([10]; MHB II with Blood)?
Answer: 128 µg/mL

Question: What about the “precipitation observed (type)” value ([10]; MHB II with Blood) of the same molecule?
Answer: TRP

Question: And the “MICs (range over anaerobic bacteria)” value (Anaerobic Bacteria)?
Answer: 2 to 64 µg/mL

Question: What about the MIC (Bifidobacterium bifidum [11]) of the same molecule?
Answer: 8 µg/mL (≈ 25.4 µM)

Question: And the “MBC:MIC” value (C. difficile; ATCC 700057)?
Answer: 2

Question: And the MBC (C. difficile; [16])?
Answer: 32 µg/mL (≈ 102 µM)

Question: What about the MIC (C. difficile; [16]) of the same molecule?
Answer: 16 µg/mL (≈ 50.9 µM)

Question: What about the MBC (C. difficile; Example 5, MMX 8330) of the same molecule?
Answer: 32 µg/mL (≈ 102 µM)

Question: And the MIC (C. difficile; Example 5, MMX 8330)?
Answer: 32 µg/mL (≈ 102 µM)

Question: What about the MBC (C. difficile; Example 5, MMX 8333) of the same molecule?
Answer: 32 µg/mL (≈ 102 µM)

Question: What about the MIC (C. difficile; Example 5, MMX 8333) of the same molecule?
Answer: 16 µg/mL (≈ 50.9 µM)

Question: And the “MBC:MIC” value (C. difficile; MMX 8330)?
Answer: 1

Question: What about the “MBC:MIC” value (C. difficile; MMX 8333) of the same molecule?
Answer: 2

Question: What about the MBC (B. bifidum MMX 3965; [17]) of the same molecule?
Answer: 32 µg/mL (≈ 102 µM)

Question: And the MIC (B. bifidum MMX 3965; [17])?
Answer: 16 µg/mL (≈ 50.9 µM)

Question: What about the “MBC:MIC” value (B. bifidum MMX 3965; [14]) of the same molecule?
Answer: 2

Question: And the MIC (Pseudomonas aeruginosa)?
Answer: > 128 µg/mL

Question: What about the MIC [12] of the same molecule?
Answer: 2 µg/mL (≈ 6.36 µM)

Question: And the IC50 ([12]; read-out: inhibits the growth (IC50))?
Answer: 2 µg/mL (≈ 6.36 µM)

Question: What about the “activity against gram-positive aerobic bacteria” value (gram-positive aerobes) of the same molecule?
Answer: active

Question: What about the MIC (Acinetobacter baumannii) of the same molecule?
Answer: > 128 µg/mL

Question: And the “activity against Gram-negative aerobes” value (gram-negative aerobes)?
Answer: inactive
